Legend:
Type in all cases: in vivo
kochia (Kochia scoparia) [1] = assay: Test A postemergence, kochia; settings: 0 to 100 scale, 0 no effect, 100 complete control
Method in brief: (§1)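 Visual injury scores (0 no effect to 100 complete control) were assigned about 10 d after treatment by comparison with untreated controls. Test chemicals, formulated in a surfactant-containing non-phytotoxic solvent, were applied to soil at planting or to plants at the one- to two-leaf stage.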

[2] = tested on: barnyardgrass (Echinochloa crus-galli); assay: Test A postemergence, barnyardgrass; settings: 0 to 100 scale, 0 no effect, 100 complete control
Method in brief: as §1

kochia (Kochia scoparia) [3] = assay: Test A preemergence, kochia; settings: 0 to 100 scale, 0 is no effect, 100 is complete control
Method in brief: as §1

[4] = tested on: foxtail, giant (Setaria faberii); assay: Test A postemergence, giant foxtail; settings: 0 to 100 scale, 0 no effect, 100 complete control
Method in brief: as §1

[5] = tested on: wheat (Triticum aestivum); assay: Test A postemergence, wheat; settings: 0 to 100 scale, 0 no effect, 100 complete control
Method in brief: as §1

[6] = tested on: pigweed (Amaranthus retroflexus); assay: Test A postemergence, pigweed; settings: 0 to 100 scale, 0 no effect, 100 complete control
Method in brief: as §1

rice (Oryza sativa) = assay: Test B flooded paddy test, rice; settings: Flood, 250 g ai/ha, applied to paddy water, 2-leaf stage, visual evaluation after 13 to 15 d
Method in brief: (§2)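 Application was made into paddy water of pots flooded 3 cm deep at treatment, with seedlings at the 2-leaf stage. That flood level was kept throughout, and plants stayed under glass 13 to 15 d before visual assessment on a 0–100 control scale.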

[7] = tested on: ducksalad (Heteranthera limosa); assay: Test B flooded paddy test, ducksalad; settings: Flood, 250 g ai/ha, applied to paddy water, 2-leaf stage, visual evaluation after 13 to 15 d
Method in brief: as §2

[8] = tested on: ragweed (common ragweed, Ambrosia elatior); assay: Test A postemergence, ragweed; settings: 0 to 100 scale, 0 no effect, 100 complete control
Method in brief: as §1

[9] = tested on: barnyardgrass (Echinochloa crus-galli); assay: Test A preemergence, barnyardgrass; settings: 0 to 100 scale, 0 is no effect, 100 is complete control
Method in brief: as §1

[10] = tested on: blackgrass (Alopecurus myosuroides); assay: Test A postemergence, blackgrass; settings: 0 to 100 scale, 0 no effect, 100 complete control
Method in brief: as §1

[11] = tested on: ragweed (common ragweed, Ambrosia elatior); assay: Test A preemergence, ragweed; settings: 0 to 100 scale, 0 is no effect, 100 is complete control
Method in brief: as §1

[12] = tested on: sedge, umbrella (small-flower umbrella sedge, Cyperus difformis); assay: Test B flooded paddy test, umbrella sedge; settings: Flood, 250 g ai/ha, applied to paddy water, 2-leaf stage, visual evaluation after 13 to 15 d
Method in brief: as §2

[13] = tested on: pigweed (Amaranthus retroflexus); assay: Test A preemergence, pigweed; settings: 0 to 100 scale, 0 is no effect, 100 is complete control
Method in brief: as §1

[14] = tested on: galium (catchweed bedstraw, Galium aparine); assay: Test A postemergence, galium; settings: 0 to 100 scale, 0 no effect, 100 complete control
Method in brief: as §1

[15] = tested on: ryegrass, Italian (Lolium multiflorum); assay: Test A postemergence, Italian ryegrass; settings: 0 to 100 scale, 0 no effect, 100 complete control
Method in brief: as §1

[16] = tested on: barnyardgrass (Echinochloa crus-galli); assay: Test B flooded paddy test, barnyardgrass; settings: Flood, 250 g ai/ha, applied to paddy water, 2-leaf stage, visual evaluation after 13 to 15 d
Method in brief: as §2

corn (Zea mays) = assay: Test A postemergence, corn; settings: 0 to 100 scale, 0 no effect, 100 complete control
Method in brief: as §1

[17] = tested on: foxtail, giant (Setaria faberii); assay: Test A preemergence, giant foxtail; settings: 0 to 100 scale, 0 is no effect, 100 is complete control
Method in brief: as §1

[18] = tested on: ryegrass, Italian (Lolium multiflorum); assay: Test A preemergence, Italian ryegrass; settings: 0 to 100 scale, 0 is no effect, 100 is complete control
Method in brief: as §1

SMILES	Plant response rating, Kochia (kochia (Kochia scoparia) [1]; 125 g ai/ha)	Plant response rating, Kochia (kochia (Kochia scoparia) [1]; 500 g ai/ha)	Plant response rating, Barnyardgrass ([2]; 125 g ai/ha)	Plant response rating, Barnyardgrass ([2]; 500 g ai/ha)	Kochia plant response rating (kochia (Kochia scoparia) [3]; 125 g ai/ha)	Kochia plant response rating (kochia (Kochia scoparia) [3]; 500 g ai/ha)	Plant response rating, Foxtail, Giant ([4]; 125 g ai/ha)	Plant response rating, Foxtail, Giant ([4]; 500 g ai/ha)	Plant response rating, Wheat ([5]; 125 g ai/ha)	Plant response rating, Wheat ([5]; 500 g ai/ha)	Plant response rating, Pigweed ([6]; 125 g ai/ha)	Plant response rating, Pigweed ([6]; 500 g ai/ha)	Plant response rating, Rice (0 to 100 scale, 0 is no effect, 100 is complete control) (rice (Oryza sativa))	Plant response rating, Ducksalad (0 to 100 scale, 0 is no effect, 100 is complete control) [7]	Plant response rating, Ragweed ([8]; 125 g ai/ha)	Plant response rating, Ragweed ([8]; 500 g ai/ha)	Barnyardgrass plant response rating ([9]; 125 g ai/ha)	Barnyardgrass plant response rating ([9]; 500 g ai/ha)	Plant response rating, Blackgrass ([10]; 125 g ai/ha)	Plant response rating, Blackgrass ([10]; 500 g ai/ha)	other results
Nc1nc(NC(c2cc3ccccc3o2)C2CC2)ncc1C(F)(F)F (stereo not drawn) [Compound 89]	0	0	0	0	0	0	0	0	0	0	0	0	0	30	0	0	0	0	0	0	Ragweed plant response rating ([11]; 125 g ai/ha): 0; Ragweed plant response rating ([11]; 500 g ai/ha): 20; Plant response rating, Sedge, Umbrella (0 to 100 scale, 0 is no effect, 100 is complete control) [12]: 95; Pigweed plant response rating ([13]; 125 g ai/ha): 0; Pigweed plant response rating ([13]; 500 g ai/ha): 0; Plant response rating, Galium ([14]; 125 g ai/ha): 0; Plant response rating, Galium ([14]; 500 g ai/ha): 0; Plant response rating, Ryegrass, Italian ([15]; 125 g ai/ha): 0; Plant response rating, Ryegrass, Italian ([15]; 500 g ai/ha): 0; Plant response rating, Barnyardgrass (0 to 100 scale, 0 is no effect, 100 is complete control) [16]: 30; Plant response rating, Corn (corn (Zea mays); 125 g ai/ha): 0; Plant response rating, Corn (corn (Zea mays); 500 g ai/ha): 0; Foxtail, Giant plant response rating ([17]; 125 g ai/ha): 0; Foxtail, Giant plant response rating ([17]; 500 g ai/ha): 0; Ryegrass, Italian plant response rating ([18]; 125 g ai/ha): 0; Ryegrass, Italian plant response rating ([18]; 500 g ai/ha): 0
Nc1nc(NC(c2cc3ccccc3o2)C2CC2)ncc1C(F)(F)F (stereo not drawn) [Compound 88]	90	90	10	90	70	100	30	90	0	0	100	100	0	65	30	90	70	90	50	50	Ragweed plant response rating ([11]; 125 g ai/ha): 80; Ragweed plant response rating ([11]; 500 g ai/ha): 100; Plant response rating, Sedge, Umbrella (0 to 100 scale, 0 is no effect, 100 is complete control) [12]: 95; Pigweed plant response rating ([13]; 125 g ai/ha): 100; Pigweed plant response rating ([13]; 500 g ai/ha): 100; Plant response rating, Galium ([14]; 125 g ai/ha): 90; Plant response rating, Galium ([14]; 500 g ai/ha): 90; Plant response rating, Ryegrass, Italian ([15]; 125 g ai/ha): 50; Plant response rating, Ryegrass, Italian ([15]; 500 g ai/ha): 60; Plant response rating, Barnyardgrass (0 to 100 scale, 0 is no effect, 100 is complete control) [16]: 80; Plant response rating, Corn (corn (Zea mays); 125 g ai/ha): 20; Plant response rating, Corn (corn (Zea mays); 500 g ai/ha): 30; Foxtail, Giant plant response rating ([17]; 125 g ai/ha): 90; Foxtail, Giant plant response rating ([17]; 500 g ai/ha): 100; Ryegrass, Italian plant response rating ([18]; 125 g ai/ha): 50; Ryegrass, Italian plant response rating ([18]; 500 g ai/ha): 100

Reference: US20220119354A1, “DIAMINO-SUBSTITUTED PYRIDINES AND PYRIMIDINES AS HERBICIDES” (FMC Corporation, priority 2019, published 2022)
